{
  "source": "paper PMC10560226",
  "about": "“Triepoxide formation by a flavin-dependent monooxygenase in monensin biosynthesis” (Nature Communications, 2023)",
  "key": {"[1]": {"target": "T1, MonCI (Streptomyces virginiae, UniProt Q846W9)", "T1 construct": "gene monC1; N-terminal 6xHis-tag, pCold vector, E. coli BL21-AI; model covers residues 4-480 (chain A), last residue 496", "T1 sequence (Q846W9 1-496)": "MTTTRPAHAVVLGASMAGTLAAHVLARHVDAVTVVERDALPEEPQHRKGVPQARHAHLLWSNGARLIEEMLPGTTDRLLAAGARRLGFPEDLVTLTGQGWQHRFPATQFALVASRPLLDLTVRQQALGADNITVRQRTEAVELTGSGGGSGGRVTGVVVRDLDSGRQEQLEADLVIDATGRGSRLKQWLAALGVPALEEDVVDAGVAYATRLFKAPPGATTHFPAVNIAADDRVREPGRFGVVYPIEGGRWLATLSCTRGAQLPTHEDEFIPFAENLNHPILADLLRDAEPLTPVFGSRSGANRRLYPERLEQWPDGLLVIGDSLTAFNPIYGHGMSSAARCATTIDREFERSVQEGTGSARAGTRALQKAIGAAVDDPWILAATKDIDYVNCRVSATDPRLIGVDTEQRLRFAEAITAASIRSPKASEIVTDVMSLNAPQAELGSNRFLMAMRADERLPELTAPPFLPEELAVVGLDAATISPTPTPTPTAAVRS", "assay": "X-ray crystal structure, […] Å", "format": "binding", "details": "noncovalently bound, co-purified; isoalloxazine ring in \"in\" conformation; pH 6.5-6.8 crystals"}, "[2]": {"target": "T1, MonCI", "assay": "LC-MS of epoxide products", "format": "biochemical", "details": "160 µM FHB, 15 µM MonCI, 80 µM FAD, Fre, NADH or NADH regeneration (glucose dehydrogenase), 50 mM Tris pH 8.0, 300 mM NaCl, 30 °C, 6 h"}, "[3]": {"target": "T1, MonCI", "assay": "HPLC of epoxide product", "format": "biochemical", "details": "electron donor, 4 mM; FHB 160 µM, Tris pH 8.0, 30 °C, 6 h"}, "[4]": {"target": "MonCI (Streptomyces cinnamonensis)", "assay": "ITC; MicroCal ITC200, 25 °C, 100 mM phosphate pH 8.0; MonCI in the cell (60 μM with wild-type MonACPX 1.2 mM in the syringe; 100 μM with control ACP 1.0 mM in the syringe); 20 injections; one site model; performed twice"}},
  "data": [
    {"compound": "Cc1cc2nc3c(=O)[nH]c(=O)nc-3n(C[C@H](O)[C@H](O)[C@H](O)COP(=O)(O)OP(=O)(O)OC[C@H]3O[C@@H](n4cnc5c(N)ncnc54)[C@H](O)[C@@H]3O)c2cc1C", "note": "[FAD]", "values": [
      {"measurement": "X-ray crystal structure, 1.9 Å", "setting": "[1]", "result": "One FAD coenzyme and one chloride ion were found in each chain"}
    ]},
    {"compound": "CC(C)=CCCC(C)=CCCC(C)=CCOC(=O)c1ccc(O)cc1", "note": "[FHB, farnesyl 4-hydroxybenzoate]", "values": [
      {"measurement": "LC-MS of epoxide products", "setting": "[2]", "result": "MonCI can perform multiple epoxidations on the same substrate molecule"}
    ]},
    {"compound": "NC(=O)C1=CN([C@@H]2O[C@H](COP(=O)(O)OP(=O)(O)OC[C@H]3O[C@@H](n4cnc5c(N)ncnc54)[C@H](O)[C@@H]3O)[C@@H](O)[C@H]2O)C=CC1", "note": "[NADH]", "values": [
      {"measurement": "HPLC of epoxide product", "setting": "[3]", "result": "MonCI has similar preference for NADH and NADPH"}
    ]},
    {"compound": "apo-DEBS ACP2 (domain or fragment)", "values": [
      {"measurement": "Kd", "setting": "[4]", "result": 49.8, "unit": "µM"}
    ]},
    {"compound": "wild-type apo-MonACPX (natural protein)", "values": [
      {"measurement": "Kd", "setting": "[4]", "result": 10.7, "unit": "µM"}
    ]}
  ]
}
